# Literature values in patent US20170258967A1, “COMPOSITIONS AND METHODS FOR DELIVERING AN AGENT TO A WOUND” (UNIVERSITY OF MEMPHIS RESEARCH FOUNDATION, priority 2014, published 2017).
# Test system: S. aureus
smiles,measurement,value
"CCCCCCC/C=C\C(=O)O [Cis-2-decenoic acid, Cis-2-Decenoic Acid]",effect on S. aureus growth and biofilm formation,inhibit S. aureus growth and biofilm formation
